# Source: US11834424B2, “Compounds useful as chaperone-mediated autophagy modulators” (ALBERT EINSTEIN COLLEGE OF MEDICINE, priority 2018, dated 2023)
# “And” between values parts separate entries of the source, which are not always exact repeats. Equal values may be shown once. “Also recorded” adds a separate entry of the source. Read-outs that look alike come from different tables or passages of the source.
# Experiment: Pharmacokinetics (plasma and brain levels) in ICR (CD-1) mice
# Assay type: in vivo
# Settings: i.v. 1 mg/kg; for Conc. in brain, individual animal / concentration at 0.083 h / concentration at 0.25 h / concentration at 0.5 h / concentration at 1 h / concentration at 2 h / concentration at 4 h / concentration at 8 h: mouse brain; for Conc. in plasma, individual animal: mouse plasma; for Brain/Plasma ratio, individual animal / concentration at 0.083 h / concentration at 0.25 h / concentration at 0.5 h / concentration at 1 h / concentration at 2 h / concentration at 4 h / concentration at 8 h: mouse; for concentration at 0.083 h / concentration at 0.25 h / concentration at 0.5 h / concentration at 1 h / concentration at 2 h / concentration at 4 h / concentration at 8 h: male, ICR (CD-1), brain, iv
# Procedure: ICR (CD-1) male mice were fasted at least three horns and water was available ad libitum before the study. Animals were housed in a controlled environment, target conditions: temperature 18 to 29° C., relative humidity 30 to 70%. Temperature and relative humidity was monitored daily. An electronic time controlled lighting system was used to provide a 12 h light/12 h dark cycle. 3 mice for each indicated time point. ICR (CD-1) mice were administered CA77 at 1 mg/kg i.v. and 30 mg/kg p.o. or CA77.1 at 1 mg/kg i.v. (FIG. 2A) and 10 mg/kg p.o. (FIG. 2B). Three (3) mice were included in each dosage and time group. Mice were sacrificed and plasma and brains were obtained at 0.083, 0.25, 0.50, 1.0, 2.0, 4.0, 8.0, and 24.0 hours after administration and drug concentration determined using LC-MS/MS. Brains were removed, homogenized with a tissue homogenizer in cold 5% w/v BSA in phosphate buffer saline (PBS). A 100 microliter aliquots of brain samples were dispensed in to glass culture tubes and mixed with ethyl acetate (800 μl), vortexed, and centrifuged. The organic layer was transferred to a fresh culture tube, dried under nitrogen, and reconstituted in mobile phase for quantitation. Pharmacokinetic parameters were determined by standard methods using Phoenix WinNonlin 6.3 software.
# Tables 3A and 3B provide the concentrations of CA77 in ICR (CD-1) mouse plasma (3A) and mouse brain (3B) following i.v. administration of 1 mg/kg CA77. Table 3C provides the brain/plasma ratio of CA77 following i.v. administration of 1 mg/kg CA77. Shaded cells indicate data not included in statistics due to aberrant value. BLQ=Below Limit of Quantitation.
# Tables 5A and 5B provide the concentrations of CA77.1 in ICR (CD-1) mouse plasma (5A) and mouse brain (5B) following i.v. administration of 1 mg/kg CA77.1. Table 5C provides the brain/plasma ratio of CA77.1 following i.v. administration of 1 mg/kg CA77.1. The plasma and brain pharmacokinetic parameters for CA77.1 are provided in Table 6. *—cells contain data not present in the statistics.
compound,measurement,setting,value
"CC(=O)Nc1ccc(-c2cnc3cc(Cl)ccc3n2)cc1 [CA77.1, N-(4-(6-chloroquinoxalin-2-yl)phenyl)acetamide]",CL obs,ICR (CD-1) mice,53 mL/min/kg
same,VSS_obs,ICR (CD-1) mice,6.463 L/kg
same,"Conc. in brain, individual animal","0.083 h, 1 mg/kg",1171 ng/g and 970 ng/g
same,"Conc. in brain, individual animal","0.25 h, 1 mg/kg",813 ng/g and 691 ng/g
same,"Conc. in brain, individual animal","0.50 h, 1 mg/kg",677 ng/g and 1083 ng/g
same,"Conc. in brain, individual animal","1.00 h, 1 mg/kg",628 ng/g and 781 ng/g
same,"Conc. in brain, individual animal","2.00 h, 1 mg/kg",269 ng/g and 186 ng/g
same,"Conc. in brain, individual animal","4.00 h, 1 mg/kg",13.6 ng/g and 24.9 ng/g
same,"Conc. in brain, individual animal","8.00 h, 1 mg/kg",3.31 ng/g and 3.66 ng/g
same,"Conc. in brain, individual animal",24.0 h,0 ng/g
same,"Conc. in plasma, individual animal","0.083 h, 1 mg/kg",178 ng/mL and 214 ng/mL
same,"Conc. in plasma, individual animal","0.25 h, 1 mg/kg",152 ng/mL and 104 ng/mL
same,"Conc. in plasma, individual animal","0.50 h, 1 mg/kg",247 ng/mL and 100 ng/mL and 481 ng/mL
same,"Conc. in plasma, individual animal","1.00 h, 1 mg/kg",79.3 ng/mL and 85.0 ng/mL
same,"Conc. in plasma, individual animal","2.00 h, 1 mg/kg",30.8 ng/mL and 38.5 ng/mL and 69.4 ng/mL
same,"Conc. in plasma, individual animal","4.00 h, 1 mg/kg",3.31 ng/mL and 3.33 ng/mL and 10.2 ng/mL
same,"Conc. in plasma, individual animal","8.00 h, 1 mg/kg",1.43 ng/mL and 1.42 ng/mL
same,"Conc. in plasma, individual animal","24.0 h, 1 mg/kg",*7.61 ng/mL; also recorded: *16.6 ng/mL
same,"Brain/Plasma ratio, individual animal","0.083 h, 1 mg/kg",6.57 and 4.53
same,"Brain/Plasma ratio, individual animal","0.25 h, 1 mg/kg",5.35 and 6.67
same,"Brain/Plasma ratio, individual animal","0.50 h, 1 mg/kg",2.74 and 6.77 and 2.25
same,"Brain/Plasma ratio, individual animal","1.00 h, 1 mg/kg",7.92 and 9.19
same,"Brain/Plasma ratio, individual animal","2.00 h, 1 mg/kg",8.97 and 7.00 and 2.68
same,"Brain/Plasma ratio, individual animal","4.00 h, 1 mg/kg",5.48 and 4.09 and 2.44
same,"Brain/Plasma ratio, individual animal","8.00 h, 1 mg/kg",2.31 and 2.59
same,concentration at 0.083 h,"1 mg/kg, 0.083 h, read-out: Conc. in brain, Mean",1060 ng/g
same,concentration at 0.083 h,"1 mg/kg, 0.083 h, read-out: Conc. in brain, individual animal",1030 ng/g
same,concentration at 0.25 h,"1 mg/kg, 0.25 h, read-out: Conc. in brain, Mean",789 ng/g
same,concentration at 0.25 h,"1 mg/kg, 0.25 h, read-out: Conc. in brain, individual animal",864 ng/g
same,concentration at 0.5 h,"1 mg/kg, 0.50 h, read-out: Conc. in brain, Mean",812 ng/g
same,concentration at 0.5 h,"1 mg/kg, 0.50 h, read-out: Conc. in brain, individual animal",677 ng/g
same,concentration at 1 h,"1 mg/kg, 1.00 h, read-out: Conc. in brain, Mean",669 ng/g
same,concentration at 1 h,"1 mg/kg, 1.00 h, read-out: Conc. in brain, individual animal",597 ng/g
same,concentration at 2 h,"1 mg/kg, 2.00 h, read-out: Conc. in brain, Mean",244 ng/g
same,concentration at 2 h,"1 mg/kg, 2.00 h, read-out: Conc. in brain, individual animal",276 ng/g
same,concentration at 4 h,"1 mg/kg, 4.00 h, read-out: Conc. in brain, Mean",19 ng/g
same,concentration at 4 h,"1 mg/kg, 4.00 h, read-out: Conc. in brain, individual animal",18.2 ng/g
same,concentration at 8 h,"1 mg/kg, 8.00 h, read-out: Conc. in brain, Mean",4 ng/g
same,concentration at 8 h,"1 mg/kg, 8.00 h, read-out: Conc. in brain, individual animal",4.92 ng/g
